Consider 24 compounds from patent publication US8049015B2 (Panmira Pharmaceuticals, LLC, priority 2008, dated 2011).

For the test, the target named is T1, human DP2 receptor (Homo sapiens, UniProt Q9Y5Y4).
T1 construct: expressed in transfected cells
T1 sequence (Q9Y5Y4 1-395): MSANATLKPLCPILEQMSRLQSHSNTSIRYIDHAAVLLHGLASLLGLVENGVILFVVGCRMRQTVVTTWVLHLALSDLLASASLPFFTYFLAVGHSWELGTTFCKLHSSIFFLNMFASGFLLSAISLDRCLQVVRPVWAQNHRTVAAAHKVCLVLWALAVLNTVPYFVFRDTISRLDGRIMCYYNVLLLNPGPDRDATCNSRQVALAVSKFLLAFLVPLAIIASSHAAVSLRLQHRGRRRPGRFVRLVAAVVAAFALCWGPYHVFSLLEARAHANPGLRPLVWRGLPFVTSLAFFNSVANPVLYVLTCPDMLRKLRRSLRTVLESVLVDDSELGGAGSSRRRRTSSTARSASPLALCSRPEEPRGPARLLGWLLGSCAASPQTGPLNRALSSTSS
The test can be described thus: DP2/CRTH2 binding assay (radioligand binding with [3H]PGD2). Conditions: [3H]PGD2 binding, membranes of HEK293 cells expressing recombinant human DP2; read-out: hDP2. As for the experimental part:
The ability of a compound to bind to the human DP2 receptor is assessed via a radioligand binding assay using [^3H]PGD2. HEK293 cells stably expressing recombinant human DP2 are resuspended in 10 mM Hepes, 7.4 containing 1 mM DTT, lysed and centrifuged at 75,000×g to pellet the membranes. The membranes are resuspended in 10 mM Hepes, 7.4 containing 1 mM DTT and 10% glycerol to approximately 5 mg protein/ml. Membranes (2-10 μg protein/well) are incubated in 96-well plates with 1 nM [^3H]PGD2 and test compound in Assay Buffer (50 mM Hepes, 10 mM MnCl2, 1 mM EDTA, plus or minus 0.2% human serum albumin, pH 7.4) for 60 minutes at room temperature. The reactions are terminated by rapid filtration through Whatman GF/C glass fibre filter plates. The filter plates were pre-soaked in 0.33% polythylenimine for 30 minutes at room temperature then washed in Wash Buffer (50 mM Hepes, 0.5 M NaCl pH 7.4) prior to harvesting. After harvesting, the filter plates are washed 3 times with 1 ml cold Wash Buffer then dried. Scintillant is then added to the plates and the radioactivity retained on the filters is determined on a Packard TopCount (Perkin Elmer). Specific binding is determined as total radioactive binding minus non-specific binding in the presence of 10 μM PGD2. IC50s were determined using GraphPad prism analysis of drug titration curves.
Take `CCN(Cc1cc(C(F)(F)F)ccc1-c1cc(CC(=O)O)cnc1OC)C(=O)NCc1ccccc1` [Compound 27, {5-[2-(3-Benzyl-1-ethyl-ureidomethyl)-4-trifluoromethyl-phenyl]-6-methoxy-pyridin-3-yl}-acetic acid]: the IC50 was less than 300 nM.

As to `CC(=O)N(Cc1ccccc1)Cc1cc(C(F)(F)F)ccc1-c1cc(CC(=O)O)cnc1Cl` [Compound 19, (5-{2-[(N-Acetyl-N-benzyl-amino)-methyl]-4-trifluoromethyl-phenyl}-6-chloro-pyridin-3-yl)-acetic acid], the IC50 is less than 300 nM.

Turning to `COc1ncc(CC(=O)O)cc1-c1ccc(C(F)(F)F)cc1CN(Cc1ccccc1)C(C)=O` [Compound 28, (5-{2-[(N-Acetyl-N-benzyl-amino)-methyl]-4-trifluoromethyl-phenyl}-6-methoxy-pyridin-3-yl)-acetic acid], the IC50 was less than 300 nM.

With `CCN(Cc1cc(C(F)(F)F)ccc1-c1cncc(CC(=O)O)c1)C(=O)CCc1ccccc1` [Compound 25, [5-(2-{[N-Ethyl-N-(3-phenyl-propionyl)-amino]-methyl}-4-trifluoromethyl-phenyl)-pyridin-3-yl]-acetic acid], the IC50 is less than 300 nM.

On to `CCN(Cc1cc(F)ccc1-c1cncc(CC(=O)O)c1)C(=O)C1CC1` [Compound 23, (5-{2-[(N-Cyclopropanecarbonyl-N-ethyl-amino)-methyl]-4-fluoro-phenyl}-pyridin-3-yl)-acetic acid], for which the IC50 lay in the range of 300 to 1000 nM.

Consider `CCN(Cc1cc(C(F)(F)F)ccc1-c1cncc(CC(=O)O)c1)C(=O)Cc1ccccn1` [Compound 33, [5-(2-{[N-Ethyl-N-(2-pyridin-2-yl-acetyl)-amino]-methyl}-4-trifluoromethyl-phenyl)-pyridin-3-yl]-acetic acid], for which the IC50 is less than 300 nM.

On to `CCN(Cc1cc(SC)ccc1-c1cncc(CC(=O)O)c1)C(=O)C1CC1` [Compound 21, (5-{2-[(N-Cyclopropanecarbonyl-N-ethyl-amino)-methyl]-4-methylsulfanyl-phenyl}-pyridin-3-yl)-acetic acid], for which the IC50 is less than 300 nM.

Consider `CC(C)(C)NC(=O)c1ccc(-c2cncc(CC(=O)O)c2)c(CN(Cc2ccccc2)C(=O)C2CC2)c1` [Compound 7, (5-{2-[(N-Benzyl-N-cyclopropanecarbonyl-amino)-methyl]-4-tert-butylcarbamoyl-phenyl}-pyridin-3-yl)-acetic acid], for which the IC50 was 300 to 1000 nM.

Take `CCN(Cc1cc(C(F)(F)F)ccc1-c1cncc(CC(=O)O)c1)C(=O)C1CC1` [Compound 8, (5-{2-[(N-Cyclopropanecarbonyl-N-ethyl-amino)-methyl]-4-trifluoromethyl-phenyl}-pyridin-3-yl)-acetic acid]: the IC50 is less than 300 nM.

On to `CC(=O)N(Cc1ccccc1)Cc1cc(C(F)(F)F)ccc1-c1cncc(CC(=O)O)c1` [Compound 18, (5-{2-[(N-Acetyl-N-benzyl-amino)-methyl]-4-trifluoromethyl-phenyl}-pyridin-3-yl)-acetic acid], for which the IC50 is less than 300 nM.

Take `CCN(Cc1cc(C(F)(F)F)ccc1-c1cc(CC(=O)O)cnc1OCC(F)(F)F)C(=O)C1CC1` [Compound 39, [5-{2-[(N-Cyclopropanecarbonyl-N-ethyl-amino)-methyl]-4-trifluoromethyl-phenyl}-6-(2,2,2-trifluoro-ethoxy)-pyridin-3-yl]-acetic acid]: the IC50 was less than 300 nM.

In the case of `CC(=O)N(Cc1ccccc1)Cc1cc(C(F)(F)F)ccc1-c1cnc(Cl)c(CC(=O)O)c1` [Compound 20, (5-{2-[(N-Acetyl-N-benzyl-amino)-methyl]-4-trifluoromethyl-phenyl}-2-chloro-pyridin-3-yl)-acetic acid], the IC50 was less than 300 nM.

As to `CCN(Cc1cc(C(F)(F)F)ccc1-c1cc(CC(=O)O)cnc1OC)C(=O)OCc1ccccc1` [Compound 40, (5-{2-[(N-Benzyloxycarbonyl-N-ethyl-amino)-methyl]-4-trifluoromethyl-phenyl}-6-methoxy-pyridin-3-yl)-acetic acid], the IC50 was less than 300 nM.

Regarding `CNC(=O)c1ccc(-c2cncc(CC(=O)O)c2)c(CN(Cc2ccccc2)C(=O)C2CC2)c1` [Compound 6, (5-{2-[(N-Benzyl-N-cyclopropanecarbonyl-amino)-methyl]-4-methylcarbamoyl-phenyl}-pyridin-3-yl)-acetic acid], the IC50 is 300 to 1000 nM.

On to `CCN(Cc1cc(C(F)(F)F)ccc1-c1cc(CC(=O)O)cnc1OC)C(C)=O` [Compound 41, (5-{2-[(N-Acetyl-N-ethyl-amino)-methyl]-4-trifluoromethyl-phenyl}-6-methoxy-pyridin-3-yl)-acetic acid], for which the IC50 lay within 300 to 1000 nM.

For the compound `CCN(Cc1cc(C(F)(F)F)ccc1-c1cncc(CC(=O)O)c1)C(=O)OCc1ccccc1` [Compound 12, (5-{2-[(N-Benzyloxycarbonyl-N-ethyl-amino)-methyl]-4-trifluoromethyl-phenyl}-pyridin-3-yl)-acetic acid], the IC50 was less than 300 nM.

In the case of `CC(=O)N(Cc1ccccc1)Cc1cc(C(F)(F)F)ccc1-c1cc(CC(=O)O)cnc1O` [Compound 26, (5-{2-[(N-Acetyl-N-benzyl-amino)-methyl]-4-trifluoromethyl-phenyl}-6-hydroxy-pyridin-3-yl)-acetic acid], the IC50 was less than 300 nM.

Turning to `CCN(Cc1cc(C(=O)O)ccc1-c1cncc(CC(=O)O)c1)C(=O)C1CC1` [Compound 2, 4-(5-Carboxymethyl-pyridin-3-yl)-3-[(N-cyclopropanecarbonyl-N-ethyl-amino)-methyl]-benzoic acid], the IC50 is less than 300 nM.

Consider `CCN(Cc1cc(C(F)(F)F)ccc1-c1cc(CC(=O)O)cnc1OC)C(=O)COC` [Compound 42, [5-(2-{[N-Ethyl-N-(2-methoxy-acetyl)-amino]-methyl}-4-trifluoromethyl-phenyl)-6-methoxy-pyridin-3-yl]-acetic acid], for which the IC50 is less than 300 nM.

Take `CCN(Cc1cc(C(F)(F)F)ccc1-c1cncc(CC(=O)O)c1)C(=O)COC` [Compound 34, [5-(2-{[N-Ethyl-N-(2-methoxy-acetyl)-amino]-methyl}-4-trifluoromethyl-phenyl)-pyridin-3-yl]-acetic acid]: the IC50 lay in the range of 300 to 1000 nM.

Regarding `CCN(Cc1cc(C(F)(F)F)ccc1-c1cc(CC(=O)O)c[n+]([O-])c1)C(=O)OCc1ccccc1` [Compound 15, (5-{2-[(N-Benzyloxycarbonyl-N-ethyl-amino)-methyl]-4-trifluoromethyl-phenyl}-1-oxy-pyridin-3-yl)-acetic acid], the IC50 is less than 300 nM.

As for `CCN(Cc1cc(C(F)(F)F)ccc1-c1cc(CC(=O)O)cnc1O)C(=O)C1CC1` [Compound 38, (5-{2-[(N-Cyclopropanecarbonyl-N-ethyl-amino)-methyl]-4-trifluoromethyl-phenyl}-6-hydroxy-pyridin-3-yl)-acetic acid], the IC50 lay in the range of 300 to 1000 nM.

Take `CCN(Cc1cc(C(F)(F)F)ccc1-c1cncc(CC(=O)O)c1)C(=O)CCc1cccnc1` [Compound 36, [5-(2-{[N-Ethyl-N-(3-pyridin-3-yl-propionyl)-amino]-methyl}-4-trifluoromethyl-phenyl)-pyridin-3-yl]-acetic acid]: the IC50 was in the range of 300 to 1000 nM.

Take `CCN(Cc1cc(C(F)(F)F)ccc1-c1cc(CC(=O)O)cnc1Cl)C(=O)C1CC1` [Compound 11, (6-Chloro-5-{2-[(N-cyclopropanecarbonyl-N-ethyl-amino)-methyl]-4-trifluoromethyl-phenyl}-pyridin-3-yl)-acetic acid]: the IC50 lay in the range of 300 to 1000 nM.
